Consider three molecules from patent publication USRE39682E1, “Farnesyl derivatives and pharmaceutical compositions containing them” (Ramot at Tel Aviv University Ltd., priority 1993, dated 2007).

The target in assay [1] is T1, prenylated protein methyltransferase (PPMTase) (Rattus norvegicus, UniProt Q9WVM4).
T1 construct: from tissue; host or cells: rat cerebellum, synaptosomal membranes
As to the kind of experiment: Methylation of AFC by PPMTase in rat cerebellar synaptosomal membranes. Format: biochemical. The conditions noted are these: for Ki: Table II, given as range, read-out: Ki. The text has this: As a substrate for methylation served AFC and as the donor of methyl served [methyl-H^3] labelled AdoMet. As a source of the enzyme prenylated protein methyltransferase (PPTMase) served rat cerebellar membranes which are known to be membranes enriched with this enzyme (Ben-Baruch, Biochem. Biophys. Res. Commun., 195, 282-288. (1993)).
Charles River adult male rats were used for preparation of cerebellar synaptosomal membranes. Cerebella were removed after decapitation and homogenized in 0.32M sucrose containing 50 mM Tris-HCl pH 7.4, 3 mM EDTA, 1 mM EGTA, 5 unit/ml aprotinin and 5 μg/ml pepstatin (buffer A) to yield 10% (w/v) homogenates. Nuclear fractions were obtained by 10 min. 600×g centrifugation and synaptosomal fractions were obtained by 20 mins. 14,500×g centrifugation. Membranes of the various cell types used were prepared in the above buffer A by a 60 min. spin at 100,000×g.
Pellets were resuspended in the homogenization buffer and stored at −70° C. Methylation assays were performed at 37° C. in 50 mM Tris-HCl buffer pH 7.4, using 75-125 μg protein, 25 μM [methyl-^3H]AdoMet ([…] in DMSO) in a total volume of 50 μl. DMSO concentration in all assays was 4%.
Reactions were terminated after 10 min. by adding 500 μl chloroform methanol (1:1) and a subsequent addition of 250 μl H2O, mixing them and subsequently by phase separation. A portion of 125 μl of the chloroform phase was dried down at 40° C. and 200 μl of 1M NaOH/1% SDS solution were added thereto. The [^3H]methanol thus formed was counted by the vapor phase equilibrium method as described previously (Hakiai et al., Cell Mol. Neurobiol., 11, 415-431, (1991); Lenner et al., Cell Mol. Neurbiol., 12, 333 and 3351, (1992); Ben-Baruch et al., Biochem. Biophy. Res. Commun., 195, 282-288, (1993)). Typical background counts (i.e. counts of methylation with no AFC added) were 50-100 cpm while typical methylation counts with AFC as a substrate yielded 500 to 6000 cpm. Assays were performed in triplicate and background counts subtracted. Methylation of endogenous substrates, in intact cells, and [α-^32P] GTP-blot overlay assays and gel electrophoreses were performed as detailed previously (Hakiai et al., supra (1991); Lenner et al., supra (1993)).

Assay [2] concerns Ha-ras-transformed rat1 cells. The experiment in a line: Growth of ras-transformed rat1 cells (cell counting). The conditions noted are these: for EC50: Rattus norvegicus, 168 h, day 7 of drug treatment, estimated from dose response curves, read-out: Inhibition of rab-transformed rat1 cell growth EC50; for effects on cell growth of ras-transformed rat1 cells: drug concentrations up to 200 μM. It is filed as cell-based, rat. From the text: The cell lines employed were rat1, -EJ, which are rat1 cells stably expressing Val- 12 activated human Ha-ras gene (Land H. et al., Nature, 304, 596-602, (1983)); V-raf-3T3, which are 3T3 cells stably expressing the V-raf gene (Xu, N., et al., Proc. Natl. Acad. Sci., 90, 6741-6745); RB-22, which are 3T3 cells stably expressing the rat Erb-B2 gene (Peles, et al., EMBO J., 10, 2077-2086 (1991)) CO6O cells (SV40-CHO), which are CHE cells stably expressing the SV-40 T-antigen gene (Lavi, Proc. Natl. Acad. Sci., 78, 6144-6148 (1981)); human endometrial carcinoma cell line HEC1A, which are cells that express activated K-ras (Enomoto T., Cancer Res., 50, 6139-6145; mouse B16F10 melanoma cells, rat pheochromocytoma PC12 cells, […] cells CHE and COS cells.
HEC1A, V-raf-3T3 and SV40-CHE cells were grown in Dulbecco's modified Eagle medium (DMEM) containing 10% fetal calf serum (FCS), 4 mM L-glutamine, 10 μg/ml streptomycin and 10 U/ml penicillin. Rat1 and -EJ cells were grown in the same medium except that it was supplemented with 12.5 U/ml nyostatin. RB-22 cells were grown in modified DMEM (1 mM sodium pyruvate, 20 mM sodium bicarbonate)/10% FCS containing 4 mM L-glutamine, […] streptomycin, 10 U/ml penicillin. PC-12 cells were grown in DMEM 15% FCS/5% horse serum and the above noted antibiotics.
HEC1A cells were plated in 24 well plates at a density of 5×10^3 cells per well and fed with 1 ml of medium. The cells were grown at 37° C. in a humidified atmosphere of 95%/5% air/CO2. All other cell types employed were plated in 24 well plates at a density of 2×10^3 cells per well and fed with the appropriate medium.
Cultures were treated with farnesyl derivatives or with solvent either 3 hrs following plating or one day after plating as indicated. […] Control cultures received 0.1% DMSO only. Cultures were fed on days 6, 7 and 9 of the experiment with the drugs or with solvent-containing media.
Cells were counted following 3, 7 and 10 days of beginning of treatments with drugs. For counting, cells were detached from plates with trypsin/EDTA, and collected by a low speed spin in the presence of DMEM/10% FCS. The pelleted cells were resuspended in a small volume of DMEM/10% FCS and counted under the microscope. Viability of cells was estimated by staining with (3-(4,5-dimethylthiosol-2-yl)-2,5-diphenyltetrazolium bromide (MTT) and microscopic examination of the stained and unstained cells, or spectrophotometric estimation (OD490, 590) of the total stain in each well. Non viable cells were estimated by the trypan blue exclusion method.
Cells were plated at a density 2×10^3/well and received either solvent or drugs one day later. Following 3, 7, or 10 days of the drugs-treatment as described above, cells were collected and the number of cells in each well was estimated by direct counting. […] The effect was apparent after a delay of at least three days. About 40-60% inhibition of cell growth was induced either by FTA or by FTS observed on days 7 and 10 of the treatment.

In the next assay the test system is ras methylation. The conditions noted are these: ras-transformed NTH3T3 cells; cited from earlier work.
Assay [3] has as its system ras-transformed NTH3T3 cells. The conditions noted are these: cited from earlier work.
The test system of a further assay is platelet aggregation. The conditions noted are these: cited from earlier work.
Another assay has as its system neutrophils chemotaxis. The conditions noted are these: cited from earlier work.

T1 sequence (Q9WVM4 whole entry): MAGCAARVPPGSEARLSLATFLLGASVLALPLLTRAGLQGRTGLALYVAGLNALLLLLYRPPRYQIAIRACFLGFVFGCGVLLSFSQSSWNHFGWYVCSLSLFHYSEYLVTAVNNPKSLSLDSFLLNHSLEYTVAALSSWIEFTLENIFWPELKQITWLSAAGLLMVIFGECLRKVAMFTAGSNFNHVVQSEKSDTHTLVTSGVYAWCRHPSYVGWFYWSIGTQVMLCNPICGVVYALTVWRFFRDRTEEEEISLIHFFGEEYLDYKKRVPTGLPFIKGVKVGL

For the molecule `CC(C)=CCC/C(C)=C/CC/C(C)=C/CNc1ccc(Cl)c(C(=O)O)c1` [NFCB, 2-chloro-5-farnesylaminobenzoic acid], in assay [1], the “serves as substrate for PPMTase methylation” value is reported as “do not serve as substrates” and the Ki – broadly, a dissociation constant, usually derived from enzyme kinetics or from competition with a known ligand – is 6.6 to 9.5 µM. In assay [2], the EC50 (in general, the concentration at which the effect is half-maximal) is 20 to 40 µM; the “effects on cell growth of ras-transformed rat1 cells” value is “effects similar to those observed with FTS and FTA”.
Turning to `CC(=O)N[C@@H](CSC/C=C(\C)CC/C=C(\C)CCC=C(C)C)C(=O)O` (stereo in doubt) [AFC, N-acetyl-trans-trans-farnesyl-L-cysteine], the “[3H-methyl]ester formed” value is on record as 3200 ± 130 cpm/assay in assay [1] (100 μM AFC alone as substrate) and 3700 ± 150 cpm/assay in assay [1] (200 μM of the substance alone as substrate). Further, in the assay on ras methylation, the “inhibition of ras methylation” value is on record as “can inhibit ras methylation”. For the same molecule, the “inhibition of cell growth” value in assay [3] is given as “does not inhibit their growth”. In addition, the “inhibition of platelet aggregation” value in the assay on platelet aggregation is “inhibit”. Moreover, in the assay on neutrophils chemotaxis, the “inhibition of neutrophils chemotaxis” value is reported as “inhibit”.
With `CC(C)=CCC/C(C)=C/CC/C(C)=C/CSc1ccc(N)cc1C(=O)O` [5-amino FTS], in assay [1], the “serves as substrate for PPMTase methylation” value is given as “do not serve as substrates” and the Ki lay within 66.1 to 80.5 µM. In addition, in assay [2], the EC50 was more than 200 µM and the “effects on cell growth of ras-transformed rat1 cells” value is recorded as “not active”.
